Values of other authors in patent US20130079315A1, “Ophthalmic Gel Compositions” (priority 2011, published 2013).

CCOC(=O)O[C@]1(C(=O)OCCl)CC[C@H]2[C@@H]3CCC4=CC(=O)C=C[C@]4(C)[C@H]3[C@@H](O)C[C@@]21C [LE, (11β,17α),-7-((Ethoxycarbonyl)oxy)-11-hydroxy-3-oxoandrosta-1,4-diene-17-carboxylic acid chloromethyl ester]
solubility in water: about 0.008 mg/mL
